Test results as given in PMC12610274, “Identification of Marrubiin as a Cathepsin C Inhibitor for Treating Rheumatoid Arthritis” (Molecules, 2025).

Experiments:
PR3 = target: T1, PR3 (Homo sapiens, UniProt P24158); assay: Recombinant NSPs isolated enzyme assay, PR3; format: biochemical; conditions: read-out: PR3 Enz (IC50: μM)
T1 construct: purchased MedChemExpress
From the text: The protocol for evaluating the inhibitory potency of compounds against other cathepsins referred to the CTSC activity assay. Recombinant human CTSB, CTSL, CTSS and CTSK for testing were also purchased from R&D Systems Biotechnology Company. Recombinant human Cat G, NE, and PR3 For testing were purchased from MedChemExpress. A multi-functional microplate reader was used to measure the absorption of Z-Leu-Arg-AMC at excitation/emission wavelengths of 380/460 nm to assess the activity changes of CTSB and CTSL, while the absorption of MCA-Arg-Pro-Lys-Pro-Val-Glu-NVAL-Trp-Arg-Lys(DNP)-NH2 at 320/405 nm was measured to evaluate the activity changes of CTSS and CTSK. Different assay buffers were prepared for diluting samples and measuring the activities of specific NSPs: a buffer containing 50 mM Tris and 750 mM NaCl (pH 7.4) was used for NE and PR3; a buffer containing 50 mM Tris, 750 mM NaCl, 5 mM EDTA (pH 7.4) was used for Cat G; and a buffer containing 25 mM MES, 50 mM NaCl, 5 mM DTT (pH 6.0) was used for CTSC. Synthetic substrates were employed to assess the activities of NSPs and CTSC: H-Gly-Arg-AMC for CTSC, N-MeSuc-Ala-Ala-Pro-Val-pNA for NE, aminobenzoyl-Val-Ala-Asp-Cys-Ala-Asp-Gln-ethylenediamine 2,4-dinitrophenyl for PR3, and N-Suc-Ala-Ala-Pro-Phe-pNA for Cat G. Each group of tests was independently repeated at least 3 times, and IC50 values were calculated using SPSS 10.0.

NE = assay: Stability (protein level) of NSPs in U937 cells, Western blot, NE; format: cell-based, human; conditions: U937, 10 μM
Protocol: The Western blot experiments in this study were performed as described below. Cells in the logarithmic growth phase were collected in appropriate numbers according to different experimental purposes. After being thoroughly washed with phosphate-buffered saline and centrifuged, the cell pellets were resuspended in phosphate-buffered saline to obtain single-cell suspensions. Cells were fully lysed using RIPA buffer (Beyotime, P0013B) supplemented with EDTA-free protease and phosphatase inhibitor (Abcam, ab201120). Total cellular protein solutions were obtained after centrifugation to remove cell debris. The isolated proteins were quantified using the BeyoBCA protein assay kit (Beyotime, P0399M) following the operational protocol. The quantified protein samples were thoroughly mixed with protein loading buffer, boiled on a dry bath for 5 min, and then cooled to room temperature for Western blot analysis. […] Finally, enhanced chemiluminescent horseradish peroxidase substrate (Tanon Science & Technology Co., Ltd., Shanghai, China, 180-506) was used to visualize protein bands on a ChemiDoc XRS system (Bio-Rad Laboratories, Inc., Hercules, CA, USA), and the protein bands were quantified using Image Lab analysis software (Version 6.1) (Bio-Rad). […]

intracellular CTSC = target: T2, intracellular CTSC (Homo sapiens, UniProt P53634); assay: CTSC cell-based assay using the U937 cell line; conditions: read-out: Cell-Based Enz (IC50: nM)
T2 construct: endogenous in cells; host or cells: U937
T2 sequence (P53634 25-463): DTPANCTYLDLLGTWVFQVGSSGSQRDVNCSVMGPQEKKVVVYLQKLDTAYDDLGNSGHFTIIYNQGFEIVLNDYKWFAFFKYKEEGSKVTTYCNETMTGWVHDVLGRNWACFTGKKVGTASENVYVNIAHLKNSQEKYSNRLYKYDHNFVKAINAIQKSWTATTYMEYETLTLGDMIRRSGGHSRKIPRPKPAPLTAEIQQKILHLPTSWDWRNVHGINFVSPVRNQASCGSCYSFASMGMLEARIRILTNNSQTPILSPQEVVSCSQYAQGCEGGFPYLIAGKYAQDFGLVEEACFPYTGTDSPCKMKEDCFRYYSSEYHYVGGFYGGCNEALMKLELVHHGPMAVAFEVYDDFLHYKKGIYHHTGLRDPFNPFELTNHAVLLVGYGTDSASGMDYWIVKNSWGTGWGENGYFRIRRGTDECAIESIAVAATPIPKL
Protocol: Cell-based CTSC enzymatic activity assays were performed in 96-well clear-bottom black microplates. […] The detection substrate, H-Gly-Arg-AFC, was diluted to 100 µM in serum-free medium and stored for later use. U937 cells in the logarithmic growth phase were harvested, washed with PBS, and counted. A single-cell suspension was prepared at a density of 1.0 × 10^6 cells/mL using serum-free medium. 30 µL of cell suspension was seeded into each well of the 96-well plate. To the test wells, 10 µL of the compound working solution was added, while 10 µL of serum-free medium was added to the control wells. The plate was pre-incubated in a cell culture incubator at 37 °C for 3 h. Subsequently, 10 µL of H-Gly-Arg-AFC was added to initiate the enzymatic reaction, and the plate was further incubated at 37 °C for 1 h. Fluorescence measurements were performed using a multimode microplate reader at excitation/emission wavelengths of 400/505 nm. Each group of tests was independently repeated at least 3 times, and IC50 values were calculated using SPSS 10.0.

T1 sequence (P24158 28-256): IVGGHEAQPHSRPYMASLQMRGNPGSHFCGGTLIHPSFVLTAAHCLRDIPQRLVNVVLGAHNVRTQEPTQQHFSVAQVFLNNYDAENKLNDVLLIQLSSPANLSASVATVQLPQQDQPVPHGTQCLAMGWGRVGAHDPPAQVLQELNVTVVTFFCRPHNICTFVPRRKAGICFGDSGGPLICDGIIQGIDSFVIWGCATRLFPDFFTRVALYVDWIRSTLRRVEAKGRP

**Q.** With `C[C@@H]1C[C@H]2OC(=O)[C@@]3(C)CCC[C@@](C)([C@@H]23)[C@@]1(O)CCc1ccoc1` [Marrubiin, marrubiin] as the compound, how does the IC50 (PR3) read?
**A.** > 10 µM

**Q.** What about the “NE protein level, % of original level” value (NE; 96 h) of the same compound?
**A.** 15.7%

**Q.** What about the “NE protein level, % of original level” value (NE; 5 days) of the same compound?
**A.** 8.7%

**Q.** And the IC50 (intracellular CTSC)?
**A.** 51.6 ± 3.2 nM
